Data taken from US20210045385A1, “PYRIDAZINONE-SUBSTITUTED KETOXIMES AS HERBICIDES” (FMC Corporation, priority 2018, published 2021).

Tests used:
Type in all cases: in vivo
[1] = test system: Italian ryegrass (Lolium mutiflorum); experiment: Test C preemergence, visual plant response rating; details: 1000 g ai/ha
Excerpt: (§1) Seeds of plant species selected from barnyardgrass (Echinochloa crus-galli), kochia (Bassia scoparia), ragweed (common ragweed, Ambrosia artemisiifolia), Italian ryegrass (Lolium mutiflorum), foxtail, giant (giant foxtail, Setaria faberi), foxtail, green (green foxtail, Setaria viridis), and pigweed (Amaranthus retroflexus) were planted into a blend of loam soil and sand and treated preemergence with a directed soil spray using test chemicals formulated in anon-phytotoxic solvent mixture which included a surfactant.
(§2) At the same time, plants selected from these weed species and also wheat (Triticum aestivum), corn (Zea mays), blackgrass (Alopecurus myosuroides), and galium (catchweed bedstraw, Galium aparine) were planted in pots containing the same blend of loam soil and sand and treated with post emergence applications of test chemicals formulated in the same manner. Plants ranged in height from 2 to 10 cm and were in the one- to two-leaf stage for the postemergence treatment. Treated plants and untreated controls were maintained in a greenhouse for approximately 10 d, after which time all treated plants were compared to untreated controls and visually evaluated for injury. Plant response ratings, summarized in Table C, are based on a 0 to 100 scale where 0 is no effect and 100 is complete control. A dash (-)response means no test result.

[2] = test system: barnyardgrass (Echinochloa crus-galli); experiment: Test C preemergence, visual plant response rating; details: 1000 g ai/ha
Excerpt: as §1, §2

[3] = test system: foxtail, giant (giant foxtail, Setaria faberi); experiment: Test C preemergence, visual plant response rating; details: 1000 g ai/ha
Excerpt: as §1, §2

kochia (Bassia scoparia) [4] = experiment: Test C preemergence, visual plant response rating; details: 1000 g ai/ha
Excerpt: as §1, §2

[5] = test system: pigweed (Amaranthus retroflexus); experiment: Test C preemergence, visual plant response rating; details: 1000 g ai/ha
Excerpt: as §1, §2

[6] = test system: ragweed (common ragweed, Ambrosia artemisiifolia); experiment: Test C preemergence, visual plant response rating; details: 1000 g ai/ha
Excerpt: as §1, §2

[7] = test system: Italian ryegrass (Lolium mutiflorum); experiment: Test C postemergence, visual plant response rating; details: Test C, postemergence, 1000 g ai/ha
Excerpt: as §1, §2

[8] = test system: barnyardgrass (Echinochloa crus-galli); experiment: Test C postemergence, visual plant response rating; details: Test C, postemergence, 1000 g ai/ha
Excerpt: as §1, §2

[9] = test system: blackgrass (Alopecurus myosuroides); experiment: Test C postemergence, visual plant response rating; details: Test C, postemergence, 1000 g ai/ha
Excerpt: as §1, §2

corn (Zea mays) = experiment: Test C postemergence, visual plant response rating; details: Test C, postemergence, 1000 g ai/ha
Excerpt: as §1, §2

[10] = test system: foxtail, giant (giant foxtail, Setaria faberi); experiment: Test C postemergence, visual plant response rating; details: Test C, postemergence, 1000 g ai/ha
Excerpt: as §1, §2

[11] = test system: galium (catchweed bedstraw, Galium aparine); experiment: Test C postemergence, visual plant response rating; details: Test C, postemergence, 1000 g ai/ha
Excerpt: as §1, §2

kochia (Bassia scoparia) [12] = experiment: Test C postemergence, visual plant response rating; details: Test C, postemergence, 1000 g ai/ha
Excerpt: as §1, §2

[13] = test system: pigweed (Amaranthus retroflexus); experiment: Test C postemergence, visual plant response rating; details: Test C, postemergence, 1000 g ai/ha
Excerpt: as §1, §2

[14] = test system: ragweed (common ragweed, Ambrosia artemisiifolia); experiment: Test C postemergence, visual plant response rating; details: Test C, postemergence, 1000 g ai/ha
Excerpt: as §1, §2

[15] = test system: wheat (Triticum aestivum); experiment: Test C postemergence, visual plant response rating; details: Test C, postemergence, 1000 g ai/ha
Excerpt: as §1, §2

Structure (SMILES) | Ryegrass, Italian plant response rating (0 to 100 scale) [1] | Barnyardgrass plant response rating (0 to 100 scale) [2] | Foxtail, Giant plant response rating (0 to 100 scale) [3] | Kochia plant response rating (0 to 100 scale) (kochia (Bassia scoparia) [4]) | Pigweed plant response rating (0 to 100 scale) [5] | Ragweed plant response rating (0 to 100 scale) [6] | Ryegrass, Italian plant response rating (0 to 100 scale) [7] | Barnyardgrass plant response rating (0 to 100 scale) [8] | Blackgrass plant response rating (0 to 100 scale) [9] | Corn plant response rating (0 to 100 scale) (corn (Zea mays)) | Foxtail, Giant plant response rating (0 to 100 scale) [10] | Galium plant response rating (0 to 100 scale) [11] | Kochia plant response rating (0 to 100 scale) (kochia (Bassia scoparia) [12]) | Pigweed plant response rating (0 to 100 scale) [13] | Ragweed plant response rating (0 to 100 scale) [14] | Wheat plant response rating (0 to 100 scale) [15]
CC(C)O/N=C(/c1c(O)cnn(C)c1=O)c1cccc2ccccc12 [Compound 223] | 0 | 0 | 0 | 0 | 100 | 20 | 0 | 20 | 0 | 0 | 30 | 90 | 0 | 40 | 50 | 0
CCO/N=C(\c1c(O)cnn(C)c1=O)c1cccc2ccccc12 [Compound 224] | 0 | 10 | 80 | 20 | 100 | 70 | 0 | 10 | 10 | 0 | 50 | 90 | 0 | 50 | 50 | 0
